# Assay results from patent US20110302823A1, “ATTRACTANT COMPOSITIONS FOR WEEVILS OF THE GENUS OT[…] USES THEREOF” (Stichting Dienst Landbouwkundig Onderzoek, priority 2010, published 2011).
# Legend:
# O. sulcatus antenna = test: GC-EAD antennal response to plant headspace volatiles; design: species or system Otiorhynchus sulcatus; details: headspace of E. fortunei 'Dart's Blanket' plants and paraffin oil extract; not quantified
# Procedure: (§1) Volatiles were collected from a bio-active extract of Euonymus fortunei ‘Dart's Blanket’ in paraffin oil and from cuttings of mechanically damaged and O. sulcatus-damaged E. fortunei ‘Dart's Blanket’. The antennal response to these plant odours by O. sulcatus were measured by gas chromatography coupled with electroantennogram detection (GC-EAD). Compounds giving an electrophysiological response were tentatively identified by gas chromatography coupled with mass-spectrometry (GC-MS). […] A selection of plant volatiles that gave an electrophysiological reaction on the antenna were tested as single compounds and in several mixtures of two or more compounds on bioactivity using the olfactometer developed specifically to study vine weevil behaviour (see e.g., Van Tol et al., (2002) Physiological Entomology 27, 213-222). A small selection of compounds bioactive in the lab was tested under field conditions in strawberry.
# A filtered 10-ml extract of E. fortunei ‘Dart's Blanket’ in paraffin oil (Merck, Uvasol) and four O. sulcatus-damaged and four mechanically damaged 20-cm long cuttings of field-grown E. fortunei ‘Dart's Blanket’ were used for headspace collection. The extract was prepared by crushing 30 g of fresh leaves from the top 15 cm part of stems with 50 ml of paraffin oil on ice. The extract was crushed for approximately 20 min followed by immediately filtering through Whatman No. 90 (diameter 15 cm) paper filter. The filtered Euonymus extract was stored cool until use. Cuttings of Euonymus were mechanically damaged with a scissor by four incisions per leaf three hours prior to headspace collection.
# The O. sulcatus-damaged Euonymus cuttings were prepared by offering 10 vine weevils 16 hrs prior to headspace collecting the cuttings. Weevils were removed and cuttings washed with deionized water prior to placing in a fresh 100 ml flask with water for headspace collection. For three days the Euonymus cuttings or a daily refreshed 10-ml paraffin oil extract of Euonymus in an open Petri-dish were placed under a glass bell jar (5 l) in a growth chamber at 20° C. and under long day (L:D=16:8 hr) light conditions. Air was purified by passage through a charcoal filter and drawn at 0.2 l min^−1 through the jar. Volatiles were entrained for a total of 69 hrs. For the collecting of volatiles, Gerstel thermodesorption tubes, filled with 80 mg Tenax TA 20/35 mesh (Grace Alltech), were used. Before use, these tubes were cleaned by rinsing them with 10 ml hexane and, subsequently, flushing them for one hour at 280° C. with 20 ml min purified nitrogen. Each Tenax tube was refreshed after approximately 8 hrs. The volatiles trapped on the Tenax were washed off with 15 ml hexane. […]
# O. sulcatus [1] = test: Field experiment: attraction of weevils to odor dispensers in a strawberry field; format: in vivo, Otiorhynchus sulcatus; details: for number of weevils per replicate (O. sulcatus caught): total of whole season, back-transformed mean, 0.4 ml of each compound per dispenser, control 4.3
# Procedure: A selection of single plant compounds (A=(Z)-2-pentenol and B=(E)-2-hexenol) and combinations of plant compounds (C=A+B in ratio 1:1, D=A+methyl eugenol in ratio 1:1, and E=A+B+methyl eugenol in ratio 1:1:1) were tested in a strawberry field (Fragaria×ananassa ‘Tillamook’) for attraction of O. sulcatus. Choice of compounds and mixtures were based on identification of EAD-active compounds from headspace of weevil-damaged E. fortunei ‘Dart's Blanket’ plants and paraffin oil extract of the same Euonymus plant species combined with bioassay results with the EAD-active compounds alone and in several mixtures (Van Tol, unpublished). The compound (Z)-2-pentenol (purity 95%) was obtained from Bedoukian (Danbury, Conn., USA), (E)-2-hexenol (purity >96%) from Acros (Geel, Belgium) and methyl eugenol (purity >98%) from Sigma-Aldrich (St. Louis, Mo., USA). All chemicals were used without further purification. Single compounds and mixtures were introduced in dispensers prior to use and sealed. In each dispenser 0.4 ml of each compound was present.
# Plant volatile dispensers were made of 1.5 ml LDPE Pasteur pipettes (Labo Scientific, Ede, the Netherlands). The compounds to be tested were introduced into the pipette, the tip of which was then sealed by heat. Prior to use, the tip of the pipette was cut off at 1 cm above the reservoir portion. […] The dispenser is a simple and cheap existing design which enables a high release profile especially for larger quantities of plant volatiles. […]
# (§2) Experiments were performed on a commercial strawberry field in Oregon (USA). […] Traps and dispensers were placed in the fields and monitored for weevils' presence between May and August 2009. […] Traps and plants surrounding each trap-dispenser combination were monitored for weevils weekly. […]
# O. sulcatus [2] = test: Laboratory (olfactometer) and field tests of attraction; format: in vivo, Otiorhynchus sulcatus
# Procedure: as §1
# as §2, with “(USA). Five different treatments (A, B, C, D and E) and one control were tested in the field. The control consisted of an empty dispenser.” for “(USA).”
compound,measurement,setting,value
CC/C=C\CCO [(Z)-3-hexenol],antennal (EAD) response,O. sulcatus antenna,EAD-active
C=C/C=C(\C)CCC=C(C)C [DMNT],antennal (EAD) response,O. sulcatus antenna,EAD-positive
"CC/C=C\CO [Treatment A, (Z)-2-pentenol]",attraction of O. sulcatus in strawberry (in words),O. sulcatus [1],attractive
same,number of weevils per replicate (O. sulcatus caught),O. sulcatus [1],11.3
same,antennal (EAD) response,O. sulcatus antenna,EAD-active
same,attractive to O. sulcatus in laboratory and field tests (in words),O. sulcatus [2],attractive
"CCC/C=C/CO [Treatment B, (E)-2-hexenol]",number of weevils per replicate (O. sulcatus caught),O. sulcatus [1],4.3
same,antennal (EAD) response,O. sulcatus antenna,EAD-active
